What is called IC50 is the concentration that inhibits the measured activity by half.

Like-named read-outs stand apart in the source and are kept apart here.

This assay deals with T1, recombinant glucosyltransferase domain of C. difficile Toxin B/TcdB (Clostridioides difficile, UniProt P18177).
T1 construct: 6-His (C); purchased R&D Systems 6246-GT
Kind of assay: biochemical.

T1 sequence (P18177 1-543): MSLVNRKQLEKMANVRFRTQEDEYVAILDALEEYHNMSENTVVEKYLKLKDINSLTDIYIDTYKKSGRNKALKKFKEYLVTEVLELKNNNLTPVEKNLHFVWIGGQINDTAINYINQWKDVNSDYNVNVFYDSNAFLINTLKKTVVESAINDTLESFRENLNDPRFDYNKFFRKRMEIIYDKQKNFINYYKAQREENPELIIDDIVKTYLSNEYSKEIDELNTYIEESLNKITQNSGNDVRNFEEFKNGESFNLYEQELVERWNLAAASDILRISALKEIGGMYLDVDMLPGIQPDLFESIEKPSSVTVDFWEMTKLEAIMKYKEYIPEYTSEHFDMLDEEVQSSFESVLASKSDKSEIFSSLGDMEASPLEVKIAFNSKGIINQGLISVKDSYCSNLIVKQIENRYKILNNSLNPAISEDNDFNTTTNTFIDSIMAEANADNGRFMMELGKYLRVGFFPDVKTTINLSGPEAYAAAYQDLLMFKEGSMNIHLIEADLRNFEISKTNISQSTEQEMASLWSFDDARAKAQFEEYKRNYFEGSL

For `N#Cc1cccc(C[C@@H]2C(=O)Nc3cc(Cl)ccc3C(=O)N2Cc2ccc(C(=O)O)cc2)c1` [Example 3n], the IC50 was in the range of 1 to 10 µM.

`Cn1cccc(C(=O)c2ccc(CN3C(=O)c4ccc(Cl)cc4NC(=O)[C@H]3Cc3ccccn3)cc2)c1=O` [Example 53a]: the IC50 lay in the range of 0.1 to 0.999 µM.

Regarding `Cc1ccc(NC(=O)c2ccc(CN3C(=O)c4ccc(NC(=O)c5ccccn5)cc4NC(=O)[C@H]3C)cc2)nc1` [Example 18d, (R)-N-(3-methyl-4-(4-((5-methylpyridin-2-yl)carbamoyl)benzyl)-2,5-dioxo-2,3,4,5-tetrahydro-1H-benzo[e][1,4]diazepin-8-yl)picolinamide], the IC50 was in the range of 10 to 35 µM.

Regarding `O=C(O)c1ccc(CN2C(=O)c3ccc(Cl)cc3NC(=O)[C@H]2Cc2ccccc2)cc1` [Example 3a, (R)-4-((3-Benzyl-8-chloro-2,5-dioxo-2,3-dihydro-1H-benzo[e][1,4]diazepin-4(5H)-yl)methyl)benzoic Acid], the IC50 lay within 1 to 10 µM.

`Cc1cc(CN2C(=O)c3ccc(Cl)cc3NC(=O)[C@H]2Cc2ccccn2)ccc1C(=O)O` [Example 7b, (R)-4-((8-chloro-2,5-dioxo-3-(pyridin-2-ylmethyl)-2,3-dihydro-1H-benzo[e][1,4]diazepin-4(5H)-yl)methyl)-2-methylbenzoic acid]: the IC50 lay in the range of 0.1 to 0.999 µM.

Take `O=C(CS)Nc1ccc(CN2C(=O)c3ccc(Cl)cc3NC(=O)[C@H]2Cc2ccccn2)cc1` [Example 29a, (R)—N-(4-((8-Chloro-2,5-dioxo-3-(pyridin-2-ylmethyl)-2,3-dihydro-1H-benzo[e][1,4]diazepin-4(5H)-yl)methyl)phenyl)-2-mercaptoacetamide]: the IC50 is 1 to 10 µM.

In the case of `C[C@@H]1C(=O)Nc2cc(Cl)ccc2C(=O)N1Cc1ccc(C(=O)Nc2ccc(C(F)(F)F)cn2)c(Br)c1` [Example 5ar, (R)-2-bromo-4-((8-chloro-3-methyl-2,5-dioxo-2,3-dihydro-1H-benzo[e][1,4]diazepin-4(5H)-yl)methyl)-N-(5-(trifluoromethyl)pyridin-2-yl)benzamide], the IC50 was in the range of 1 to 10 µM.

Consider `COc1cnc(NC(=O)c2ccc(CN3C(=O)c4ccc(Cl)cc4NC(=O)[C@H]3Cc3cnccn3)cc2)nc1` [Example 5y, 4-((8-chloro-2,5-dioxo-3-(pyrazin-2-ylmethyl)-2,3-dihydro-1H-benzo[e][1,4]diazepin-4(5H)-yl)methyl)-N-(5-methoxypyrimidin-2-yl)benzamide], for which the 50% inhibitory concentration (IC50) is under 0.1 µM.

On to `C[C@@H]1C(=O)Nc2cc(Cl)ccc2C(=O)N1Cc1ccc(C(=O)Nc2cc3ccccc3cn2)cc1` [Example 4bb, (R)-4-((8-chloro-3-methyl-2,5-dioxo-2,3-dihydro-1H-benzo[e][1,4]diazepin-4(5H)-yl)methyl)-N-(isoquinolin-3-yl)benzamide], for which the IC50 lay in the range of 0.1 to 0.999 µM.

In the case of `Cn1ccc(NC(=O)c2ccc(CN3C(=O)c4ccc(Cl)cc4NC(=O)[C@H]3Cc3cccnc3)cc2)n1` [Example 4d, (R)-4-((8-chloro-2,5-dioxo-3-(pyridin-3-ylmethyl)-2,3-dihydro-1H-benzo[e][1,4]diazepin-4(5H)-yl)methyl)-N-(1-methyl-1H-pyrazol-3-yl)benzamide], the IC50 is 0.1 to 0.999 µM.

On to `O=C(CN1CCOCC1)Nc1cc(CN2C(=O)c3ccc(Cl)cc3NC(=O)[C@H]2Cc2ccccn2)ccc1C(=O)O` [Example 22h], for which the IC50 lay within 1 to 10 µM.

Take `O=C1Nc2cc(Cl)ccc2C(=O)N(Cc2ccc(S(=O)(=O)Nc3ccccn3)cc2)[C@@H]1Cc1cccnc1` [Example 36a, (R)-4-((8-Chloro-2,5-dioxo-3-(pyridin-3-ylmethyl)-2,3-dihydro-1H-benzo[e][1,4]diazepin-4(5H)-yl)methyl)-N-(pyridin-2-yl)benzenesulfonamide]: the IC50 lay within 1 to 10 µM.

For the compound `O=C(Nc1ncccc1F)c1ccc(CN2C(=O)c3ccc(Cl)cc3NC(=O)[C@H]2Cc2ccccn2)cc1Cl` [Example 5ac, (R)-2-chloro-4-((8-chloro-2,5-dioxo-3-(pyridin-2-ylmethyl)-2,3-dihydro-1H-benzo[e][1,4]diazepin-4(5H)-yl)methyl)-N-(3-fluoropyridin-2-yl)benzamide], the IC50 is under 0.1 µM.

Regarding `O=C1Nc2cc(Cl)ccc2C(=O)N(Cc2ccc(C(=O)N3CCc4cccnc43)c(Cl)c2)[C@@H]1Cc1ccccn1` [Example 4cd, (R)-8-chloro-4-(3-chloro-4-(2,3-dihydro-1H-pyrrolo[2,3-b]pyridine-1-carbonyl)benzyl)-3-(pyridin-2-ylmethyl)-3,4-dihydro-1H-benzo[e][1,4]diazepine-2,5-dione], the IC50 was under 0.1 µM.

Take `O=C(NO)c1ccc(CN2C(=O)c3ccc(Cl)cc3NC(=O)[C@H]2Cc2ccccn2)cc1` [Example 40a, (R)-4-((8-Chloro-2,5-dioxo-3-(pyridin-2-ylmethyl)-2,3-dihydro-1H-benzo[e][1,4]diazepin-4(5H)-yl)methyl)-N-hydroxybenzamide]: the IC50 was under 0.1 µM.

As to `COc1ccc(NC(=O)c2ccc(CN3C(=O)c4ccc(Cl)cc4NC(=O)[C@H]3Cc3cccnc3)cc2)nc1` [Example 5g, (R)-4-((8-chloro-2,5-dioxo-3-(pyridin-3-ylmethyl)-2,3-dihydro-1H-benzo[e][1,4]diazepin-4(5H)-yl)methyl)-N-(5-methoxypyridin-2-yl)benzamide], the IC50 is under 0.1 µM.

In the case of `O=C1Nc2cc(Cl)ccc2C(=O)N(Cc2ccc(C(=O)N3CCc4cccnc43)cc2)[C@@H]1Cc1ccccn1` [Example 4ah, (R)-8-chloro-4-(4-(2,3-dihydro-1H-pyrrolo[2,3-b]pyridine-1-carbonyl)benzyl)-3-(pyridin-2-ylmethyl)-3,4-dihydro-1H-benzo[e][1,4]diazepine-2,5-dione], the IC50 was under 0.1 µM.

For the compound `Cc1ccc(C(=O)Nc2ccc(CN3C(=O)c4ccc(Cl)cc4NC(=O)[C@H]3Cc3ccccn3)cc2)nc1` [Example 26f], the 50% inhibitory concentration (IC50) is under 0.1 µM.

As for `O=C1Nc2cc(Cl)ccc2C(=O)N(C[C@H]2CC[C@H](C(=O)c3ccccn3)CC2)[C@@H]1Cc1ccccn1` [Example 11c, (R)-8-chloro-4-((4-picolinoylcyclohexyl)methyl)-3-(pyridin-2-ylmethyl)-3,4-dihydro-1H-benzo[e][1,4]diazepine-2,5-dione], the IC50 was under 0.1 µM.

With `Cn1cnc(C(=O)Nc2ccc(CN3C(=O)c4ccc(Cl)cc4NC(=O)[C@H]3Cc3ccccn3)cc2)c1` [Example 27k], the IC50 was under 0.1 µM.

`O=C(Nc1ccc(N2CCOCC2)cn1)c1ccc(CN2C(=O)c3ccc(Cl)cc3NC(=O)[C@H]2Cc2ccccn2)cc1` [Example 4av, (R)-4-((8-chloro-2,5-dioxo-3-(pyridin-2-ylmethyl)-2,3-dihydro-1H-benzo[e][1,4]diazepin-4(5H)-yl)methyl)-N-(5-morpholinopyridin-2-yl)benzamide]: the IC50 was under 0.1 µM.

Take `O=C(O)c1ccc(CN2C(=O)c3ccc(Cl)cc3NC(=O)[C@H]2Cc2cccnc2)cc1` [Example 2a, (R)-4-((8-Chloro-2,5-dioxo-3-(pyridin-3-ylmethyl)-2,3-dihydro-1H-benzo[e][1,4]diazepin-4(5H)-yl)methyl)benzoic Acid]: the IC50 was 0.1 to 0.999 µM.

In the case of `Cc1cc(CN2C(=O)c3ccc(Cl)cc3NC(=O)[C@H]2Cc2ccccn2)ccc1C(=O)Nc1ccc(C#N)cn1` [Example 5at, (R)-4-((8-chloro-2,5-dioxo-3-(pyridin-2-ylmethyl)-2,3-dihydro-1H-benzo[e][1,4]diazepin-4(5H)-yl)methyl)-N-(5-cyanopyridin-2-yl)-2-methylbenzamide], the IC50 is under 0.1 µM.

As for `COc1ccc(NC(=O)c2ccc(S(=O)(=O)N3Cc4ccc(Cl)cc4NC(=O)[C@@H]3Cc3ccccn3)cc2)nc1` [Example 19d, (S)-4-((8-chloro-2-oxo-3-(pyridin-2-ylmethyl)-2,3-dihydro-1H-benzo[e][1,4]diazepin-4(5H)-yl)sulfonyl)-N-(5-methoxypyridin-2-yl)benzamide], the half-inhibitory concentration (IC50) was 0.1 to 0.999 µM.

Regarding `Cc1cnc(NC(=O)c2ccc(CN3C(=O)c4ccc(Cl)cc4NC(=O)[C@H]3Cc3ccccn3)cc2)s1` [Example 4bw, (R)-4-((8-chloro-2,5-dioxo-3-(pyridin-2-ylmethyl)-2,3-dihydro-1H-benzo[e][1,4]diazepin-4(5H)-yl)methyl)-N-(5-methylthiazol-2-yl)benzamide], the IC50 was under 0.1 µM.

Take `O=C(O)c1ccc(CN2C(=O)c3ccc(Cl)cc3NC(=O)[C@H]2Cc2ccccn2)cc1NC(=O)C1CCCCC1` [Example 22c]: the IC50 fell in the range of 0.1 to 0.999 µM.

For the compound `Cc1cnc(NC(=O)c2ccc(S(=O)(=O)N3Cc4ccc(Cl)cc4NC(=O)[C@@H]3Cc3ccccn3)cc2)nc1` [Example 19e, (S)-4-((8-chloro-2-oxo-3-(pyridin-2-ylmethyl)-2,3-dihydro-1H-benzo[e][1,4]diazepin-4(5H)-yl)sulfonyl)-N-(5-methylpyrimidin-2-yl)benzamide], the IC50 lay within 0.1 to 0.999 µM.

In the case of `O=C(O)c1ccc(CN2C(=O)c3ccc(Cl)cc3NC(=O)[C@H]2Cc2ccccn2)cc1Cl` [Example 7a, (R)-2-Chloro-4-((8-chloro-2,5-dioxo-3-(pyridin-2-ylmethyl)-2,3-dihydro-1H-benzo[e][1,4]diazepin-4(5H)-yl)methyl)benzoic Acid], the IC50 lay in the range of 0.1 to 0.999 µM.

For the compound `O=C1Nc2cc(Cl)ccc2C(=O)N(C[C@H]2CC[C@H](C(=O)Nc3ccccn3)CC2)[C@@H]1Cc1cccnc1` [Example 35l], the IC50 lay within 0.1 to 0.999 µM.

`CNC(=O)c1cccc(-c2cc(CN3C(=O)c4ccc(Cl)cc4NC(=O)[C@H]3Cc3ccccn3)ccc2C(=O)O)c1` [Example 8p, (R)-5-((8-chloro-2,5-dioxo-3-(pyridin-2-ylmethyl)-2,3-dihydro-1H-benzo[e][1,4]diazepin-4(5H)-yl)methyl)-3′-(methylcarbamoyl)-[1,1′-biphenyl]-2-carboxylic acid]: the IC50 lay in the range of 0.1 to 0.999 µM.

With `O=C1Nc2cc(Cl)ccc2C(=O)N(C[C@H]2CC[C@H](C(=O)c3cccn4ccnc34)CC2)[C@@H]1Cc1ccccn1` [Example 34b], for the setting “read-out: TcdB UDP-Glucose hydrolysis activity (IC50, coded), UDP-Glucose hydrolysis assay, fluorescence polarization”, the IC50 was under 0.1 µM.

On to `Cn1ccnc1C(=O)[C@H]1CC[C@H](CN2C(=O)c3ccc(Cl)cc3NC(=O)[C@H]2Cc2ccccn2)CC1` [Example 33c], for which the IC50 was 1 to 10 µM.

These data come from patent publication US10669242B2 (priority 2016, dated 2020).
